This is an account of results in PubChem BioAssay AID330 (DTP/NCI, 2004).

The subject of the assay is P388 leukemia ip, CD2F1 mice, survival T/C. Description: NCI In Vivo Anticancer Drug Screen. Data for tumor model P388 Leukemia (intraperitoneal) in CD2F1 (CDF1) mice. The note with it: endpoint: median survival time, higher = longer survival. In a few lines: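 Mice carrying the transplanted tumor received test compound or vehicle. Survival was recorded in each group, and the value is the treated-group measurement divided by that of the vehicle-treated control group.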

The mark [1] stands for this setting: dose: 50.0 mg/kg/injection, schedule: Q01DX005 (ip), vehicle: Klucel (hydroxypropylcellulose) (HPC).
[2] abbreviates: dose: 100.0 mg/kg/injection, schedule: Q01DX005 (ip), vehicle: Klucel (hydroxypropylcellulose) (HPC).
The mark [3] stands for this setting: dose: 200.0 mg/kg/injection, schedule: Q01DX005 (ip), vehicle: Klucel (hydroxypropylcellulose) (HPC).
Setting [4] is: dose: 60.0 mg/kg/injection, schedule: Q01DX005 (ip), vehicle: saline with Tween-80.
[5] abbreviates: dose: 120.0 mg/kg/injection, schedule: Q01DX005 (ip), vehicle: saline with Tween-80.
Where [6] appears, read: dose: 240.0 mg/kg/injection, schedule: Q01DX005 (ip), vehicle: saline with Tween-80.
Setting [7] is: dose: 50.0 mg/kg/injection, schedule: Q01DX005 (ip), vehicle: saline with Tween-80.
Where [8] appears, read: dose: 100.0 mg/kg/injection, schedule: Q01DX005 (ip), vehicle: saline with Tween-80.
[9] abbreviates: dose: 200.0 mg/kg/injection, schedule: Q01DX005 (ip), vehicle: saline with Tween-80.
Setting [10] is: dose: 50.0 mg/kg/injection, schedule: Q01DX009 (ip), vehicle: Klucel (hydroxypropylcellulose) (HPC).
Where [11] appears, read: dose: 100.0 mg/kg/injection, schedule: Q01DX009 (ip), vehicle: Klucel (hydroxypropylcellulose) (HPC).
The mark [12] stands for this setting: dose: 200.0 mg/kg/injection, schedule: Q01DX009 (ip), vehicle: Klucel (hydroxypropylcellulose) (HPC).

Where “and” joins values, the source holds several entries; their conditions need not be identical. Equal values may be shown once. Inconclusive results and toxic doses are left out.

For the compound `C/C(=N/NC(=O)c1ccccc1)C(=O)OC(=NC1CCCCC1)NC1CCCCC1`, the T/C runs as follows: (dose: 100.0 mg/kg/injection, schedule: Q04DX002 (ip), vehicle: Klucel (hydroxypropylcellulose) (HPC)) 99 % of control; (dose: 200.0 mg/kg/injection, schedule: Q04DX002 (ip), vehicle: Klucel (hydroxypropylcellulose) (HPC)) 95 % of control; (dose: 400.0 mg/kg/injection, schedule: Q04DX002 (ip), vehicle: Klucel (hydroxypropylcellulose) (HPC)) 96 % of control.
As to `CSC(CNC(=O)N(CCCl)N=O)n1cc(F)c(=O)[nH]c1=O` (centres undefined), the T/C runs as follows: (dose: 3.12 mg/kg/injection, schedule: Q04DX003 (ip), vehicle: saline with Tween-80) 161 % of control; (dose: 6.25 mg/kg/injection, schedule: Q04DX003 (ip), vehicle: saline with Tween-80) 158 % of control and 171 % of control; (dose: 12.5 mg/kg/injection, schedule: Q04DX003 (ip), vehicle: saline with Tween-80) 220 % of control and 264 % of control; (dose: 25.0 mg/kg/injection, schedule: Q04DX003 (ip), vehicle: saline with Tween-80) 266 % of control and 285 % of control; (dose: 50.0 mg/kg/injection, schedule: Q04DX003 (ip), vehicle: saline with Tween-80) 275 % of control and 285 % of control; (dose: 100.0 mg/kg/injection, schedule: Q04DX003 (ip), vehicle: saline with Tween-80) 110 % of control and 123 % of control.
In the case of `Cn1c(C(Cl)Cl)nc2ccccc2c1=O`, the T/C is, setting by setting: (dose: 12.5 mg/kg/injection, schedule: Q04DX003 (ip), vehicle: Klucel (hydroxypropylcellulose) (HPC)) 95 % of control; (dose: 25.0 mg/kg/injection, schedule: Q04DX003 (ip), vehicle: Klucel (hydroxypropylcellulose) (HPC)) 104 % of control; (dose: 50.0 mg/kg/injection, schedule: Q04DX003 (ip), vehicle: Klucel (hydroxypropylcellulose) (HPC)) 104 % of control.
On to `CC[n+]1c(-c2ccccc2)c2cc(N)ccc2c2ccc(N)cc21` (tested in a mixture with another compound), for which the T/C runs as follows: (dose: 5.0 mg/kg/injection, schedule: Q01DX005 (ip), vehicle: other) 102 % of control; (dose: 10.0 mg/kg/injection, schedule: Q01DX005 (ip), vehicle: other) 112 % of control; (dose: 20.0 mg/kg/injection, schedule: Q01DX005 (ip), vehicle: other) 102 % of control; (dose: 40.0 mg/kg/injection, schedule: Q01DX005 (ip), vehicle: other) 109 % of control; (dose: 80.0 mg/kg/injection, schedule: Q01DX005 (ip), vehicle: other) 119 % of control.
As to `COc1ccccc1/C=C1/C(=O)N(c2ccc([N+](=O)[O-])cc2)N=C1C`, the T/C reads like this: under setting [1], 102 % of control; under setting [2], 103 % of control; under setting [3], 101 % of control.
Consider `OCCN1CCN(CC/C=C2/c3ccccc3Sc3ccc(Cl)cc32)CC1`, for which the T/C (dose: 0.39 mg/kg/injection, schedule: Q01DX005 (ip), vehicle: saline) was 100 % of control; the T/C (dose: 0.78 mg/kg/injection, schedule: Q01DX005 (ip), vehicle: saline) is 100 % of control; the T/C (dose: 1.56 mg/kg/injection, schedule: Q01DX005 (ip), vehicle: saline) was 105 % of control; the T/C (dose: 6.25 mg/kg/injection, schedule: Q01DX005 (ip), vehicle: saline) is 123 % of control; the T/C (dose: 12.5 mg/kg/injection, schedule: Q04DX003 (ip), vehicle: saline) was 118 % of control; the T/C (dose: 25.0 mg/kg/injection, schedule: Q04DX003 (ip), vehicle: saline) is 122 % of control. The T/C reads like this: (dose: 33.0 mg/kg/injection, schedule: Q04DX003 (ip), vehicle: saline) 90 % of control; (dose: 50.0 mg/kg/injection, schedule: Q04DX003 (ip), vehicle: saline) 90 % of control; (dose: 75.0 mg/kg/injection, schedule: Q04DX003 (ip), vehicle: saline) 100 % of control.
On to `O=[N+]([O-])c1c[nH]n2c([N+](=O)[O-])cnc12`, for which the T/C runs as follows: (dose: 6.25 mg/kg/injection, schedule: Q01DX009 (ip), vehicle: other) 91 % of control; (dose: 12.5 mg/kg/injection, schedule: Q01DX009 (ip), vehicle: other) 101 % of control.
As to `COc1ccc(NC(=O)C(COCc2ccccc2)C(C)=O)cc1` (centres undefined), the T/C is 94 % of control under setting [4], 91 % of control under setting [5] and 92 % of control under setting [6].
Take `CC[n+]1ccc(Nc2ccc(/C=C/c3ccc4cc(Nc5cc[n+](CC)cc5)ccc4[n+]3CC)cc2)cc1`: the T/C (dose: 3.3 mg/kg/injection, schedule: Q04DX003 (ip), vehicle: saline sonified) was 113 % of control.
As for `CCCCCCCCCCC(O)Cn1ccnc1` (centres undefined), the T/C (dose: 12.5 mg/kg/injection, schedule: Q01DX009 (ip), vehicle: saline with Tween-80) is 96 % of control; the T/C (dose: 25.0 mg/kg/injection, schedule: Q01DX009 (ip), vehicle: saline with Tween-80) is 100 % of control; the T/C (dose: 50.0 mg/kg/injection, schedule: Q01DX009 (ip), vehicle: saline with Tween-80) was 95 % of control.
Consider `CC[C@H](C)[C@H](NC(=O)OC(C)(C)C)C(=O)ON1C(=O)CCC1=O`, for which the T/C reads like this: under setting [7], 109 % of control; under setting [8], 113 % of control; under setting [9], 109 % of control.
With `CN1C(=O)Cc2ccccc21`, the T/C is 99 % of control (dose: 25.0 mg/kg/injection, schedule: Q01DX009 (ip), vehicle: Klucel (hydroxypropylcellulose) (HPC)); 101 % of control under setting [10]; 105 % of control under setting [11]; 99 % of control under setting [12].
As to `O=c1c2cc(Cl)ccc2nc2n1OCC2`, the T/C runs as follows: under setting [10], 94 % of control; under setting [11], 112 % of control; under setting [12], 104 % of control.
For the compound `O=C(O)C[CH2][Sn](=[O])[CH2]CC(=O)O`, the T/C is 101 % of control under setting [1], 101 % of control under setting [2] and 102 % of control under setting [3].
As to `Cl/C(=N\Nc1ccccc1)c1ccccc1`, the T/C was 100 % of control (dose: 3.13 mg/kg/injection, schedule: Q01DX009 (ip), vehicle: Klucel (hydroxypropylcellulose) (HPC)); 106 % of control (dose: 6.25 mg/kg/injection, schedule: Q01DX009 (ip), vehicle: Klucel (hydroxypropylcellulose) (HPC)); 109 % of control (dose: 7.5 mg/kg/injection, schedule: Q01DX001 (ip), vehicle: saline sonified); 104 % of control (dose: 12.5 mg/kg/injection, schedule: Q01DX009 (ip), vehicle: Klucel (hydroxypropylcellulose) (HPC)); 109 % of control (dose: 15.0 mg/kg/injection, schedule: Q01DX001 (ip), vehicle: saline sonified); 109 % of control (dose: 30.0 mg/kg/injection, schedule: Q01DX001 (ip), vehicle: saline sonified).
As to `COc1ccccc1C(c1cc2c(cc1O)OCO2)N1CCOCC1` (centres undefined), the T/C under setting [4] was 117 % of control, the T/C under setting [5] was 115 % of control and the T/C under setting [6] is 122 % of control.
Regarding `CC1(Cn2ccc(=O)[nH]c2=O)CC(C2(C)OCCO2)C(=O)O1` (centres undefined), the T/C under setting [4] was 102 % of control, the T/C under setting [5] is 102 % of control and the T/C under setting [6] was 101 % of control.
With `CCOc1cc2c(NCCCN(CCO)CCO)ncnc2c(OCC)c1OCC`, the T/C is, setting by setting: (dose: 50.0 mg/kg/injection, schedule: Q01DX009 (ip), vehicle: saline) 101 % of control; (dose: 100.0 mg/kg/injection, schedule: Q01DX009 (ip), vehicle: saline) 111 % of control; (dose: 200.0 mg/kg/injection, schedule: Q01DX009 (ip), vehicle: saline) 101 % of control.
Regarding `Cc1c(-c2ccncc2)nc2ccccc2c1C(=O)O`, the T/C by setting is: under setting [7], 100 % of control; under setting [8], 100 % of control; under setting [9], 97 % of control.
In the case of `COC(=O)c1c(O)c(OC)c(-c2ccccc2)[nH]c1=O`, the T/C was 89 % of control under setting [4] and 89 % of control under setting [5].
Turning to `O=C(NC(=S)c1ccc(Cl)cc1)Nc1ccc(Cl)c(Cl)c1`, the T/C by setting is: (dose: 5.0 mg/kg/injection, schedule: Q01DX009 (ip), vehicle: saline with Tween-80) 87 % of control; (dose: 10.0 mg/kg/injection, schedule: Q01DX009 (ip), vehicle: saline with Tween-80) 96 % of control; (dose: 20.0 mg/kg/injection, schedule: Q01DX009 (ip), vehicle: saline with Tween-80) 100 % of control.
